What was measured:
Type in all cases: biochemical
MELK = MELK (Homo sapiens, UniProt Q14680); assay: Off-target kinase panel, ZLYTE: MELK; conditions: read-out: Estimated IC50 (uM) MELK
Description: (§1) The activity data was obtained in a panel of 265 and 264 for compounds 1-1 and CC-1, respectively, using the ZLYTE and ADAPTA assay methods indicated in the table below.
(§2) The ZLYTE biochemical assay employs a fluorescence-based, coupled-enzyme format and is based on the differential sensitivity of phosphorylated and non-phosphorylated peptides to proteolytic cleavage. The peptide substrate is labeled with two fluorophores—one at each end—that make up a Fluorescence Resonance Energy Transfer (FRET) pair.
(§3) In the primary reaction, the kinase transfers the gamma-phosphate of ATP to a single tyrosine, serine or threonine residue in a synthetic FRET-peptide. In the secondary reaction, a site-specific protease recognizes and cleaves non-phosphorylated FRET-peptides. Phosphorylation of FRET-peptides suppresses cleavage by the Development Reagent. […] A ratiometric method, which calculates the ratio (the Emission Ratio) of donor emission to acceptor emission after excitation of the donor fluorophore at 400 nm, is used to quantitate reaction progress, as shown in the equation below. […]
(§4) Both cleaved and uncleaved FRET-peptides contribute to the fluorescence signals and therefore to the Emission Ratio. The extent of phosphorylation of the FRET-peptide can be calculated from the Emission Ratio. […]
(§5) 10. Read on fluorescence plate reader and analyze the data.

RPS6KB1 = RPS6KB1 (Homo sapiens, UniProt P23443); assay: Off-target kinase panel, ZLYTE: RPS6KB1; conditions: read-out: Estimated IC50 (uM) RPS6KB1
Chain of RPS6KB1 (P23443 whole entry): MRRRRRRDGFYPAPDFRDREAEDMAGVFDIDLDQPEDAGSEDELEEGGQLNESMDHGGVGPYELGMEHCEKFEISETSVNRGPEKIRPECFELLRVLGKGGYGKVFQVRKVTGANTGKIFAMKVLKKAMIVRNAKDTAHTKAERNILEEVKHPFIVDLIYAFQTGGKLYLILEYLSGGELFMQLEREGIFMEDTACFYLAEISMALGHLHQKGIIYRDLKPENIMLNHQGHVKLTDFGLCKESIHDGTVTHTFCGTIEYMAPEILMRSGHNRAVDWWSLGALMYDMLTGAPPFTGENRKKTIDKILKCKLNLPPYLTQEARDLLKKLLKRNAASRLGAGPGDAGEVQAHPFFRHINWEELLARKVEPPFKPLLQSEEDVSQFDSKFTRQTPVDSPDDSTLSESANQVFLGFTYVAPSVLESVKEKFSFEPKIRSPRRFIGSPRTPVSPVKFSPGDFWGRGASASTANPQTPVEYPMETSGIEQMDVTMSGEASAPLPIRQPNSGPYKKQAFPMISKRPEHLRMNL
Description: as §1, §2, §3, §4, §5

LRRK2 (G2019S) = LRRK2 (G2019S) (Homo sapiens, UniProt Q5S007, G2019S); assay: Off-target kinase panel, ADAPTA: LRRK2 (G2019S); conditions: read-out: Estimated IC50 (uM) LRRK2 (G2019S)
Chain of LRRK2 (G2019S) (Q5S007 whole entry G2019S): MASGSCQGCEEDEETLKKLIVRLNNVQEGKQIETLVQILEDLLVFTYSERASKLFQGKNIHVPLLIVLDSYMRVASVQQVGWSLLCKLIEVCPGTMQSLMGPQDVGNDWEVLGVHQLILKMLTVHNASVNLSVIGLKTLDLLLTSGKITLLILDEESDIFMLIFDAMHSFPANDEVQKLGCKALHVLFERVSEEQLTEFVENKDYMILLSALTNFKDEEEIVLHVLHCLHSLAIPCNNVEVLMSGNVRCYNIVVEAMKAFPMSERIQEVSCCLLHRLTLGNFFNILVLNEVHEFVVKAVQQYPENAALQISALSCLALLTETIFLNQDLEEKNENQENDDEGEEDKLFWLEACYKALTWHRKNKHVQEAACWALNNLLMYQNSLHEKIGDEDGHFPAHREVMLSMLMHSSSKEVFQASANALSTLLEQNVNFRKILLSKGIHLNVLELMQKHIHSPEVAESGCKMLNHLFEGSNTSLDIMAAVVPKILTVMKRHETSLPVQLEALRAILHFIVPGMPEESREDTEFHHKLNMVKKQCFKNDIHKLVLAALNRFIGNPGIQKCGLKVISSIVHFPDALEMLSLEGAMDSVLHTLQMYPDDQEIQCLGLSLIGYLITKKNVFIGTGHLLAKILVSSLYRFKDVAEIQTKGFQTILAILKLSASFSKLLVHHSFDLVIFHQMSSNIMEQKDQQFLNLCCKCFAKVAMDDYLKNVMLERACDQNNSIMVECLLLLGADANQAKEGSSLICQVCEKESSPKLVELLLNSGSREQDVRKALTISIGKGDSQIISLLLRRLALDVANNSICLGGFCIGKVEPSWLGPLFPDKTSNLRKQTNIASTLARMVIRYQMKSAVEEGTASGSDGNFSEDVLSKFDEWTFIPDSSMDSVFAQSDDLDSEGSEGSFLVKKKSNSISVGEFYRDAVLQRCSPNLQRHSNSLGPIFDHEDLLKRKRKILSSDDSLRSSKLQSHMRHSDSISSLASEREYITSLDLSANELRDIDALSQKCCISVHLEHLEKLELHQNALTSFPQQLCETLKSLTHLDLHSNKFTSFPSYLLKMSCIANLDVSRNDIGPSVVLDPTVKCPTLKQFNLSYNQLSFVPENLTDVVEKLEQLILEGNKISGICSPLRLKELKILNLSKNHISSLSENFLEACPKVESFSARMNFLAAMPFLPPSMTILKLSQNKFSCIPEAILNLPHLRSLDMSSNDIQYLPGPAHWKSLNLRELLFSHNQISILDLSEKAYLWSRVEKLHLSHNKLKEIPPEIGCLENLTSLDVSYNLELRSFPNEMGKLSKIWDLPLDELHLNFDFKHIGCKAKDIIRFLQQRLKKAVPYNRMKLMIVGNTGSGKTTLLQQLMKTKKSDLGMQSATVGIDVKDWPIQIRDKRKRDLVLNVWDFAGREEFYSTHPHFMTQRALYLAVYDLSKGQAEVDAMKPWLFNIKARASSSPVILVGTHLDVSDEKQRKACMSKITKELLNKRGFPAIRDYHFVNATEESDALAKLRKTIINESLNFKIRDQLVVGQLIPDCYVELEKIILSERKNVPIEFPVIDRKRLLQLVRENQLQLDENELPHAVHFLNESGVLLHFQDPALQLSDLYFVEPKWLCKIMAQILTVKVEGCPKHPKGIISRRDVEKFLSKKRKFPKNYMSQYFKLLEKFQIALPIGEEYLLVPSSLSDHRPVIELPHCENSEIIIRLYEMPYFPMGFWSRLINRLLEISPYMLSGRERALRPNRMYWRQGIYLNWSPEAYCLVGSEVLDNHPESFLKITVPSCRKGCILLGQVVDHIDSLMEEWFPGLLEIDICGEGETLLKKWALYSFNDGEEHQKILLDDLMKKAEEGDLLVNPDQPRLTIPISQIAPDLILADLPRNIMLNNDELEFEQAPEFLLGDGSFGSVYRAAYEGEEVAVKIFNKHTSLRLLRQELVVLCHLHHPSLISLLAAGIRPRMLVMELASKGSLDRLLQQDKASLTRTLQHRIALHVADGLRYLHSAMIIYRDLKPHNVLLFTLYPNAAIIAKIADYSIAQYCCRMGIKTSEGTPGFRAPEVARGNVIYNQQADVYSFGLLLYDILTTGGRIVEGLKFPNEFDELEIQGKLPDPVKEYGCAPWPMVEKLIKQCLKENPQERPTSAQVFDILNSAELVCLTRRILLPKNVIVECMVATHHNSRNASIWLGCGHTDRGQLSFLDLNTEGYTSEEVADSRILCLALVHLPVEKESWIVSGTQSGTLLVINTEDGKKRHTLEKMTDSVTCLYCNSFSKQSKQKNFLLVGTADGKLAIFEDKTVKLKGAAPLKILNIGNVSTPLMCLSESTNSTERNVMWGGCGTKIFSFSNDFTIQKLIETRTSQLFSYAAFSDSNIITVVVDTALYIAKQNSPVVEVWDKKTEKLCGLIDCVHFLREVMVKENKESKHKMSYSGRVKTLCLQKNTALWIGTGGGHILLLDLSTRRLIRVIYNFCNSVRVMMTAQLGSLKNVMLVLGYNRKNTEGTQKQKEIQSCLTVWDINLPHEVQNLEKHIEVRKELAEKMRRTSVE
Description: as §1
The Adapta universal kinase assay is a homogenous, fluorescent based immunoassay for the detection of ADP. In contrast to ATP depletion assays, the Adapta assay is highly sensitive to ADP formation such that a majority of the signal change occurs in the first 10-20% conversion of ATP to ADP. This makes the Adapta universal kinase assay well suited for use with low activity kinases.
The principle of the Adapta universal kinase assay is outlined below. The assay itself can be divided into two phases: a kinase reaction phase, and an ADP detection phase. In the kinase reaction phase, all components required for the kinase reaction are added to the well, and the reaction is allowed to incubate for 60 minutes. After the reaction, a detection solution consisting of a europium labeled anti-ADP antibody, an Alexa Fluor 647 labeled ADP tracer, and EDTA (to stop the kinase reaction) is added to the assay well. […]
ADP formation is determined by calculating the emission ratio from the assay well. The emission ratio is calculated by dividing the intensity of the tracer (acceptor) emission by the intensity of the Eu (donor) emission at 615 nm as shown in the equation below. […]
12. Read on fluorescence plate reader and analyze the data.

CDK5/P35 = CDK5/P35 (Homo sapiens, UniProt Q00535); assay: Off-target kinase panel, ZLYTE: CDK5/P35; conditions: read-out: Estimated IC50 (uM) CDK5/P35
Chain of CDK5/P35 (Q00535 whole entry): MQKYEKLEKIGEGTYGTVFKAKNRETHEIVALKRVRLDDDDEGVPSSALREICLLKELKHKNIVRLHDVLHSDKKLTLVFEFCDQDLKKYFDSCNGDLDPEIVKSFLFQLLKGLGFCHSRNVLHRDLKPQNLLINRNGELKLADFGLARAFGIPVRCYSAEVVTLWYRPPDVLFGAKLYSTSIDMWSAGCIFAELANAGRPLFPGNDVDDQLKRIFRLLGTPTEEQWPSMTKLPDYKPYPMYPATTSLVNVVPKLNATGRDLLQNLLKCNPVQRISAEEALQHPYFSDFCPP
Chain of CDK5/P35 (Q15078 2-307 partner limits assumed): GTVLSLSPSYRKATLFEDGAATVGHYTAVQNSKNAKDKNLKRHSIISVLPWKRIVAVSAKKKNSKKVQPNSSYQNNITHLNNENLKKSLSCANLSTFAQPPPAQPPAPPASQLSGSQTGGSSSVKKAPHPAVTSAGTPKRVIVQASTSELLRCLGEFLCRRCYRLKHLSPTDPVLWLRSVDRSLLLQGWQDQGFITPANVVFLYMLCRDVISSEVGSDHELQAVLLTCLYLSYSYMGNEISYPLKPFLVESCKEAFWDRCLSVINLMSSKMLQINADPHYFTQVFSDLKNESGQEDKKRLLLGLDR
Description: as §1, §2, §3, §4, §5

Chain of MELK (Q14680 whole entry): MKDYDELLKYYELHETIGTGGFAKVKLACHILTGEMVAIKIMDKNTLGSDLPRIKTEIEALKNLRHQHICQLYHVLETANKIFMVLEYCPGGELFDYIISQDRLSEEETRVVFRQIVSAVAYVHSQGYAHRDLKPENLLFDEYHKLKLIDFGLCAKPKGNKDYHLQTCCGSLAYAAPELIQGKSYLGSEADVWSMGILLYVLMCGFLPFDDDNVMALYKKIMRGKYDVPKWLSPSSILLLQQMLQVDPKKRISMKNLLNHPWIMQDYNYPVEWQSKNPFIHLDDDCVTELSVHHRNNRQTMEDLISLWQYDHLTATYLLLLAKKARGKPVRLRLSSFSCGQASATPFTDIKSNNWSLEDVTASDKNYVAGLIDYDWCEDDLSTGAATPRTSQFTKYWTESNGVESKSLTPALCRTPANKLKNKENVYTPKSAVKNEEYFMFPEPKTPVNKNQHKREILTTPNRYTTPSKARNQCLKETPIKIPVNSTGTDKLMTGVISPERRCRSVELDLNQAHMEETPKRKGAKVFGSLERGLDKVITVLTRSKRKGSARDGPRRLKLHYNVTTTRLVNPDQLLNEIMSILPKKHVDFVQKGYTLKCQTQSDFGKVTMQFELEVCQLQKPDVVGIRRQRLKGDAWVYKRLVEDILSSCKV

IC50 (MELK) [µM] | IC50 (RPS6KB1) [µM] | IC50 (LRRK2 (G2019S)) [µM] | IC50 (CDK5/P35) [µM] | Structure (SMILES)
> 2 | 1.9 | > 2 | > 2 | C[C@@H]1CN(c2cc(Br)cc3[nH]ncc23)CC[C@]12NC(=O)NC2=O (single isomer, unassigned) [Compound 1-1]
1.4 | 1.7 | 0.94 | 1.6 | O=C1NC(=O)C2(CCN(c3cc(Cl)cc4[nH]ncc34)CC2)N1 [CC-1]
